Data from ChEMBL document CHEMBL1126634, “Cyclic sulfolanes as novel and high affinity P2 ligands for HIV-1 protease inhibitors” (J Med Chem, 1993).

Experiments:
[1] = biological target: Human immunodeficiency virus type 1 protease (Human immunodeficiency virus 1) (UniProt Q72874); assay: Antiviral potency of HIV-1 in MT-4 human T lymphoid cells with IIIb isolate; format: functional, cell-based
[2] = biological target: Human immunodeficiency virus type 1 protease (Human immunodeficiency virus 1, UniProt Q72874); assay: Tested against S2-binding site of HIV-1 protease
[3] = test system: MT4; assay: Compound tested for the antiviral potency of HIV-1 in MT-4 human T lymphoid cells with IIIb isolate (n=5); format: functional; conditions: read-out: CIC95

SMILES	IC95 [1]	IC50 [2]	IC95 [3]
C[C@H]1[C@@H](OC(=O)N[C@@H](Cc2ccccc2)[C@H](O)CN2C[C@H]3CCCC[C@H]3C[C@H]2C(=O)NC(C)(C)C)CCS1(=O)=O	200 nM	11.4 nM	–
CC(C)(C)NC(=O)[C@@H]1C[C@@H]2CCCC[C@@H]2CN1C[C@@H](O)[C@H](Cc1ccccc1)NC(=O)O[C@@H]1CCS(=O)(=O)C1	> 800 nM	140 nM	–
C[C@@H]1OCC[C@@H]1OC(=O)N[C@@H](Cc1ccccc1)[C@H](O)CN1C[C@H]2CCCC[C@H]2C[C@H]1C(=O)NC(C)(C)C	400 nM	52.4 nM	–
C[C@@H]1[C@H](OC(=O)N[C@@H](Cc2ccccc2)[C@H](O)CN2C[C@H]3CCCC[C@H]3C[C@H]2C(=O)NC(C)(C)C)CCS1(=O)=O	200 nM	22.3 nM	–
CC(C)(C)NC(=O)[C@@H]1C[C@@H]2CCCC[C@@H]2CN1C[C@@H](O)[C@H](Cc1ccccc1)NC(=O)OCCS(C)(=O)=O	–	1030 nM	–
NC(=O)OC[C@@H]1CCCOC1	–	694 nM	–
CC(C)(C)NC(=O)[C@@H]1C[C@@H]2CCCC[C@@H]2CN1C[C@@H](O)[C@H](Cc1ccccc1)NC(=O)O[C@H]1CCS(=O)(=O)C1	–	75 nM	350 nM
C[C@H]1OCC[C@H]1OC(=O)N[C@@H](Cc1ccccc1)[C@H](O)CN1C[C@H]2CCCC[C@H]2C[C@H]1C(=O)NC(C)(C)C	1600 nM	169 nM	–

Now from value to compound, other results behind:

IC95 [1]	IC50 [2]	SMILES	IC95 [3]
200 nM	11 nM	CC(C)[C@H]1[C@@H](OC(=O)N[C@@H](Cc2ccccc2)[C@H](O)CN2C[C@H]3CCCC[C@H]3C[C@H]2C(=O)NC(C)(C)C)CCS1(=O)=O	–
400 nM	5.4 nM	CC[C@H]1[C@@H](OC(=O)N[C@@H](Cc2ccccc2)[C@H](O)CN2C[C@H]3CCCC[C@H]3C[C@H]2C(=O)NC(C)(C)C)CCS1(=O)=O	–
1500 nM	30 nM	CC(C)C[C@@H]1[C@H](OC(=O)N[C@@H](Cc2ccccc2)[C@H](O)CN2C[C@H]3CCCC[C@H]3C[C@H]2C(=O)NC(C)(C)C)CCS1(=O)=O	–
50 nM	3 nM	CC(C)[C@@H]1[C@H](OC(=O)N[C@@H](Cc2ccccc2)[C@H](O)CN2C[C@H]3CCCC[C@H]3C[C@H]2C(=O)NC(C)(C)C)CCS1(=O)=O	–
800 nM	–	CC(C)(C)NC(=O)[C@@H]1C[C@@H]2CCCC[C@@H]2CN1C[C@@H](O)[C@H](Cc1ccccc1)NC(=O)O[C@H]1CCOC1	–
400 nM	12 nM	CC(C)C[C@H]1[C@@H](OC(=O)N[C@@H](Cc2ccccc2)[C@H](O)CN2C[C@H]3CCCC[C@H]3C[C@H]2C(=O)NC(C)(C)C)CCS1(=O)=O	–
–	9 nM	CC(C)[C@H]1SCC[C@H]1OC(=O)N[C@@H](Cc1ccccc1)[C@H](O)CN1C[C@H]2CCCC[C@H]2C[C@H]1C(=O)NC(C)(C)C	–
800 nM	13.1 nM	CC[C@@H]1[C@H](OC(=O)N[C@@H](Cc2ccccc2)[C@H](O)CN2C[C@H]3CCCC[C@H]3C[C@H]2C(=O)NC(C)(C)C)CCS1(=O)=O	–
